Test results taken from patent publication US6664244B1, “Pet foods” (Nihon Shokuhin Kako Co., Ltd., priority 1998, dated 2003).

Key:
beagles [1] = assay: Experiments on suppression of obesity (body weight change, high-fat feed); type: in vivo; settings: healthy beagles; Hills c/d Dry 200 g + lard 117 g basic feed, corn starch replaced with 23.4 g β-CD; about 400 kcal per metabolic body weight per day; vs reference group (FIG. 1)
Procedure: Ten healthy beagles were divided in 2 groups consisting of 5, respectively. Hills c/d Dry were fed for 1 week before the experiment. As for feeds in this experiment, the one in which 200 g of Hills c/d Dry blended with 117 g of lard was used as a basic feed. In the reference group, the one in which 34 g of cornstarch was added to the above basic feed is used. In the experimental group, the feed used is the same one as used in the reference group except that all corn starch was replaced with 23.4 g of β-CD (β-cyclodextrin). The feeding amount for one dog, per day, was controlled without changing the ratio of components so that the amount of the basic feed (Hills c/d Dry and lard) is about 400 kcal per metabolic body weight (kg0.75)

beagles [2] = assay: Experiments on solution of obesity (body weight change in obese beagles); type: in vivo; settings: beagles made obese by 2 months of high-energy foods; feed with 23.4 g corn starch replaced with β-CD; about 275 kcal per metabolic body weight per day (FIG. 2)
Description: Ten beagles were fed high-energy foods for 2 months before the experiment, so that they became obese. At the beginning of the experiment, they were divided in […] so as to make uniform the average body weight of each group as much as possible. The feed used in the reference group was the same as that of Experiment 1 and the same feed in which 23.4 g of corn starch was replaced with β-CD was used in the β-CD group. The feeding amount for one dog, per day was controlled without changing the ratio of components so that the amount of the basic feed (Hills c/d Dry and lard) is about 275 kcal per metabolic body weight (kg0.75).

**Q.** `OC[C@H]1O[C@@H]2O[C@H]3[C@H](O)[C@@H](O)[C@@H](O[C@H]4[C@H](O)[C@@H](O)[C@@H](O[C@H]5[C@H](O)[C@@H](O)[C@@H](O[C@H]6[C@H](O)[C@@H](O)[C@@H](O[C@H]7[C@H](O)[C@@H](O)[C@@H](O[C@H]8[C@H](O)[C@@H](O)[C@@H](O[C@H]1[C@H](O)[C@H]2O)O[C@@H]8CO)O[C@@H]7CO)O[C@@H]6CO)O[C@@H]5CO)O[C@@H]4CO)O[C@@H]3CO` [β-CD, β-cyclodextrin] was tested. Which “increase of body weight” value (beagles [1]) did it give?
**A.** significantly suppressed

**Q.** What about the body weight (beagles [2]) of the same molecule?
**A.** significantly reduced
